Data from patent US20130184202A1, “Peptide Inhibitors and Methods of Use Thereof” (priority 2011, published 2013).

Legend:
[1] = tested on: RAW cells; assay: iNOS and IL-1β mRNA expression by RT-PCR after BAL treatment; format: cell-based; details: RAW cells treated with SNO-OE-BAL in the presence of the NF-κB inhibitor
Protocol: RAW cells were treated with BAL prepared from overexpressing mice, either with or without prior transnitrosation with L-SNOC.
RAW cells were treated with OE-BAL or SNO-OE-BAL in the presence and absence of the NF-κB inhibitor caffeic acid phenethyl ester (CAPE).

[2] = target: T1, SP-D multimer (Rattus norvegicus, UniProt P35248); assay: SP-D multimer disruption, native gel electrophoresis and Western blot; format: biochemical; details: for disruption of the SP-D multimer: RrSP-D, 25 mM, 37° C., 20 minutes, native gel
T1 sequence (P35248 20-374): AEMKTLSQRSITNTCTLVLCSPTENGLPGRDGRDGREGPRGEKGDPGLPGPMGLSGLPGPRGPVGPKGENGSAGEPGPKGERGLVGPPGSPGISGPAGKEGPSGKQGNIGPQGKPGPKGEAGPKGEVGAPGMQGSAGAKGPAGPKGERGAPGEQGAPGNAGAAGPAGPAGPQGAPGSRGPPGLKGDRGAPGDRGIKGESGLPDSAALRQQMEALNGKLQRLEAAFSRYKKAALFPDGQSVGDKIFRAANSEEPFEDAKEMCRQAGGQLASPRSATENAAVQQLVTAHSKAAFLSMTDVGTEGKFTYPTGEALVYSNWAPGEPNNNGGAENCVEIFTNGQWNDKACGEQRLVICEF

[3] = target: T2, RrSP-D (Rattus norvegicus, UniProt P35248); assay: SP-D trimer/structure disruption, SDS-PAGE and Western blot; format: biochemical; details: for disruption of SP-D structure (specificity): 50 ng RrSP-D, equimolar concentration, non-reducing denaturing SDS-PAGE
T2 sequence (P35248 20-374): T1 sequence (P35248 20-374)
Protocol: FIG. 12A provides a hydrophobicity plot of the designed peptide CJ-1 (SEQ ID NO: 1). CJ-1 was directly derived from SP-D sequence within which cysteine residues are located in the hydrophobic pocket. RrSP-D (50 ng) was incubated with or without CJ-1 (10 mM) or DTT (10 mM) at 37° C. for 20 minutes (FIG. 12B). […] RrSP-D (50 ng) was incubated with different doses of CJ-1 (0.01-10 mM) at 37° C. for 20 minutes.
By matching the reduced cysteines within the peptide to those in the target protein one can specifically disrupt structure. Using 50 ng of RrSP-D the effect of an equimolar concentration of CJ-1, targeted peptide; CJ-2, a scrambled version of CJ-1 with no hydrophobic pocket; or L-cysteine was analyzed. Following incubation SP-D structure was assessed by non-reducing denaturing SDS-PAGE.

[4] = target: T3, SNO-SP-D (Rattus norvegicus, UniProt P35248); assay: Biotin-Switch analysis of SNO-SP-D content; format: biochemical; details: NO-treated RrSP-D incubated with 1 μM or 10 μM
T3 sequence (P35248 20-374): T1 sequence (P35248 20-374)
Protocol: (§1) RrSP-D was incubated with 100 μM of nitric oxide for 30 minutes to generate SNO-SP-D (FIG. 14A). The resultant protein was incubated with CJ-1 (1 μM or 10 μM). The protein samples were subjected to Biotin-Switch analysis to determine SNO-SP-D content. Lane 1 untreated RrSP-D; Lane 2 NO-treated RrSP-D; Lane 3 NO-treated RrSP-D+1 μM CJ-1; Lane 4 NO-treated RrSP-D+10 μM CJ-1. […] The chemoattractive activity to RAW 264.7 cells was assayed using a Boydin Chamber.

[5] = tested on: RAW 264.7 cells; assay: Chemotactic activity, Boydin Chamber; format: cell-based; details: SNO-SP-D samples treated with 1 μM or 10 μM
Protocol: as §1

[6] = tested on: RAW 264.7 cells; assay: Real-time qPCR of pro-inflammatory mediator mRNA (IL-1β, iNOS, ptgs2, CCL2); format: cell-based; details: 10 μM, 3 hours, without LPS
Protocol: Raw 264.7 cells were incubated with or without CJ-1 (10 μM) or SNO-CJ-1 (10 μM) for 3 hours (FIG. 17A) or incubated with or without CJ-1 (10 μM) or SNO-CJ-1 (10 μM) for 20 minutes and treated with LPS (1 ng/mL) for an additional 3 hours (FIG. 17B). The cells were lysed and total RNA was isolated and subjected to real-time qPCR for mRNA expression of IL-1β, iNOS, ptgs2 and CCL2. SNO-CJ-1 inhibits mRNA expression of pro-inflammatory mediators.

[7] = tested on: HIV X4 strain NL4-3; assay: HIV reverse transcriptase (RT) assay in supernatants of infected Jurkat T cells; format: cell-based; details: NL4-3 preincubated 1 hour at 37° C.; Jurkat T cells infected 16 hours; supernatants day 6 postinfection
Protocol: The HIV X4 strain NL4-3 was preincubated without (control) or with peptide CJ-2 which was a peptide with two cysteines in the hydrophilic domain, peptide CJ-3 which was derived from gp120, or peptide CJ-4 which was derived from gp41 for 1 hour at 37° C. at the concentrations indicated. The Jurkat T cells (0.5×10^6 cell/ml) were infected by NL4-3 (30 ng/ml) for 16 hours and washed. The supernatants at day 6 postinfection was collected and subjected to HIV reverse transcriptase (RT) assay. The data are shown represent the mean±SD of duplicate cultures (FIG. 15D).

[8] = target: HIV gp120 LAV (Human immunodeficiency virus type 1 group M subtype B, UniProt P03377); details: preincubated, denatured, SDS PAGE, Coomassie blue
Protocol: Peptides were designed to disrupt HIV gp120 formation. […] HIV gp120 LAV preincubated without (lane 1) or with DTT (lane 2), L-cysteine (lane 3), CJ-3 (lane 4) CJ-4 (lane 5) or CJ-3 and CJ-4 (lane 6) was denatured and subjected to SDS PAGE gel electrophoresis. The resulted proteins were visualized by Coomassie blue staining (FIG. 15C).

Molecule | disruption of the SP-D multimer [2] | disruption of SP-D structure (specificity) [3] | inhibition of HIV (RT activity in supernatants) [7] | disruption of the structure of HIV gp120 LAV [8] | also measured
O=C(/C=C/c1ccc(O)c(O)c1)OCCc1ccccc1 [CAPE, caffeic acid phenethyl ester] | – | – | – | – | effect on SNO-OE-BAL mediated increase in iNOS expression [1]: completely abrogated the increase in iNOS expression
N[C@@H](CSN=O)C(=O)O [L-SNOC, L-S-nitroso-cysteine] | capable of disrupting the SP-D multimer at high concentration | – | – | – | disruption of native SP-D multimers ([2]; BAL from SP-D overexpressing mice or 0.2 μM recombinant SP-D treated with L-SNOC, native electrophoresis, Western blot): disruption of the native multimers to dodecamers and trimers
N[C@@H](CS)C(=O)O [L-cysteine, reference compound] | capable of disrupting the SP-D multimer at high concentration | Only CJ-1 is capable of disrupting SP-D structure | – | – | –
AEMKSLSQRSVPNTCTLVMCSPTE [CJ-1] | – | capable of disrupting SP-D structure | – | – | SNO-SP-D content (S-nitrosothiol) [4]: depleted S-nitrosothiol from SNO-SP-D; SNO-SP-D induced RAW 264.7 cell migration [5]: inhibits the ability of SNO-SP-D to induce RAW 264.7 cell migration; disruption of SP-D, dose dependence ([3]; RrSP-D 50 ng, 0.01-10 mM, 37° C., 20 minutes): disrupts SP-D in a dose-dependent manner; disruption of SP-D trimers ([3]; RrSP-D 50 ng, 10 mM, 37° C., 20 minutes, SDS PAGE, Western blot): disrupts SP-D trimers; induction of transcription of inflammatory genes [6]: capable of inducing transcription of inflammatory genes within macrophages
LVWEDLRNLCLFSYRLLR [CJ-4] | – | – | inhibited HIV | disrupted the structure of HIV gp120 LAV | –
VPVWKDAETTLFCASDAK [CJ-3] | – | – | inhibited HIV | disrupted the structure of HIV gp120 LAV | –
